Experimental data: US9695155B2, “Herbicidal substituted pyrimidinyloxy benzene compounds” (E. I. DU PONT DE NEMOURS AND COMPANY, priority 2013, dated 2017)

Columns and labels:
ducksalad = assay: Test C flooded paddy test; type: in vivo, Heteranthera limosa; conditions: Flood, scale 0 to 100 (0 no effect, 100 complete control), 13 to 15 days
How it was run: (§1)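 Pots were flooded to 3 cm above the soil surface at treatment, compound applied directly to the paddy water, and that depth held throughout. Plants were kept in a greenhouse for 13 to 15 days, then visually rated against untreated controls.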

barnyardgrass = assay: Test C flooded paddy test; type: in vivo, Echinochloa crus-galli; conditions: Flood, scale 0 to 100 (0 no effect, 100 complete control), 13 to 15 days
How it was run: as §1

wild poinsettia = assay: Test E postemergence; type: in vivo, Euphorbia heterophylla
How it was run: (§2)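 Compound in a non-phytotoxic solvent mixture with surfactant was applied preemergence to seeds in silt loam soil, or postemergence to plants 2 to 18 cm tall grown in peat-based potting medium. Plants were kept in a greenhouse for 14 to 21 days, then rated visually against untreated controls on a 0 (no effect) to 100 (complete control) scale.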

palmer pigweed = assay: Test E postemergence; type: in vivo, Amaranthus palmeri
From the text: Seeds of plant species selected from corn (Zea mays), soybean (Glycine max), velvetleaf (Abutilon theophrasti), lambsquarters (Chenopodium album), wild poinsettia (Euphorbia heterophylla), palmer pigweed (Amaranthus palmeri), waterhemp (common waterhemp, Amaranthus rudis), surinam grass (Brachiaria decumbens), large (Lg) crabgrass (Digitaria sanguinalis), Brazilian crabgrass (Digitaria horizontalis), fall panicum (Panicum dichotomiflorum), giant foxtail (Setaria faberii), green foxtail (Setaria viridis), goosegrass (Eleusine indica), johnsongrass (Sorghum halepense), ragweed (common ragweed, Ambrosia elatior), barnyardgrass (Echinochloa crus-galli), sandbur (southern sandbur, Cenchrus echinatus), arrowleaf sida (Sida rhombifolia), Italian ryegrass (Lolium multiflorum), dayflower (Virginia (VA) dayflower, Commelina virginica), field bindweed (Convolvulus arvensis), morningglory (Ipomoea coccinea), nightshade (eastern black nightshade, Solanum ptycanthum), kochia (Kochia scoparia), yellow nutsedge (Cyperus esculentus), cocklebur (common cocklebur, Xanthium strumarium), smartweed (ladysthumb smartweed, and hairy beggarticks (Bidens pilosa), were planted into a silt loam soil and treated preemergence with test chemicals formulated in a non-phytotoxic solvent mixture which included a surfactant.
At the same time, plants from these crop and weed species and also horseweed (Canada horseweed, Conyza canadensis), waterhemp_RES1, (ALS & Triazine resistant common waterhemp, Amaranthus rudis), and waterhemp_RES2, (ALS & HPPD resistant common waterhemp, Amaranthus rudis) were planted in pots containing Redi-Earth® planting medium (Scotts Company, 14111 Scottslawn Road, Marysville, Ohio 43041) comprising spaghnum peat moss, vermiculite, wetting agent and starter nutrients were treated with postemergence applications of test chemicals formulated in the same manner. Plants ranged in height from 2 to 18 cm for postemergence treatments (1- to 4-leaf stage). Treated plants and controls were maintained in a greenhouse for 14 to 21 days, after which time all species were compared to controls and visually evaluated. Plant response ratings, summarized in Table E, are based on a scale of 0 to 100 where 0 is no effect and 100 is complete control. A dash (-) response means no test result.

field bindweed = assay: Test E postemergence; type: in vivo, Convolvulus arvensis
How it was run: as §2

hairy beggarticks = assay: Test E postemergence; type: in vivo, Bidens pilosa
How it was run: as §2

[1] = Postemergence, 31 g ai/ha, scale 0 to 100
[2] = Postemergence, 62 g ai/ha, scale 0 to 100
[3] = Postemergence, 125 g ai/ha, scale 0 to 100
[4] = postemergence, 8 g ai/ha, scale 0 to 100, 0 no effect, 100 complete control
[5] = postemergence, 16 g ai/ha, scale 0 to 100, 0 no effect, 100 complete control

FC(F)(F)c1cnn(-c2c(Br)cccc2Oc2ncc(Cl)cn2)c1 [Compound 191]
Plant response rating, Ducksalad (ducksalad; 31 g ai/ha): 30
Plant response rating, Ducksalad (ducksalad; 62 g ai/ha): 50
Plant response rating, Ducksalad (ducksalad; 125 g ai/ha): 75
Plant response rating, Ducksalad (ducksalad; 250 g ai/ha): 80
Plant response rating, Barnyardgrass (barnyardgrass; 31 g ai/ha): 0
Plant response rating, Barnyardgrass (barnyardgrass; 62 g ai/ha): 0
Plant response rating, Barnyardgrass (barnyardgrass; 125 g ai/ha): 0
Plant response rating, Barnyardgrass (barnyardgrass; 250 g ai/ha): 20
Plant response rating, Poinsettia, Wild (wild poinsettia; [1]): 50
Plant response rating, Poinsettia, Wild (wild poinsettia; [2]): 50
Plant response rating, Poinsettia, Wild (wild poinsettia; [3]): 60
Plant response rating, Poinsettia, Wild (wild poinsettia; [4]): 20
Plant response rating, Poinsettia, Wild (wild poinsettia; [5]): 40
Plant response rating, Pigweed, Palmer (palmer pigweed; [1]): 75
Plant response rating, Pigweed, Palmer (palmer pigweed; [2]): 75
Plant response rating, Pigweed, Palmer (palmer pigweed; [3]): 85
Plant response rating, Pigweed, Palmer (palmer pigweed; [4]): 20
Plant response rating, Pigweed, Palmer (palmer pigweed; [5]): 40
Plant response rating, Field Bindweed (field bindweed; [1]): 50
Plant response rating, Field Bindweed (field bindweed; [2]): 40
Plant response rating, Field Bindweed (field bindweed; [3]): 50
Plant response rating, Field Bindweed (field bindweed; [4]): 20
Plant response rating, Field Bindweed (field bindweed; [5]): 40
Plant response rating, Beggarticks (hairy beggarticks; [1]): 40
Plant response rating, Beggarticks (hairy beggarticks; [2]): 50
Plant response rating, Beggarticks (hairy beggarticks; [3]): 50
Plant response rating, Beggarticks (hairy beggarticks; [4]): 10
Plant response rating, Beggarticks (hairy beggarticks; [5]): 20

N#Cc1cccc(Oc2ncc(Cl)cn2)c1-n1cc(OCC(F)(F)F)cn1 [Compound 274, 3-[(5-chloro-2-pyrimidinyl)oxy]-2-[4-(2,2,2-trifluoroethoxy)-1H-pyrazol-1-yl]benzonitrile]
pest or weed control at 31 g/ha (wild poinsettia; Euphorbia heterophylla, post-emergence, Postemergence, 31 g ai/ha, scale 0 to 100, read-out: Plant response rating, Poinsettia, Wild): 70%
pest or weed control at 62 g/ha (wild poinsettia; Euphorbia heterophylla, post-emergence, Postemergence, 62 g ai/ha, scale 0 to 100, read-out: Plant response rating, Poinsettia, Wild): 70%
pest or weed control at 125 g/ha (wild poinsettia; Euphorbia heterophylla, post-emergence, Postemergence, 125 g ai/ha, scale 0 to 100, read-out: Plant response rating, Poinsettia, Wild): 70%
pest or weed control at 8 g/ha (wild poinsettia; Euphorbia heterophylla, post-emergence, postemergence, 8 g ai/ha, scale 0 to 100, 0 no effect, 100 complete control, read-out: Plant response rating, Poinsettia, Wild): 50%
pest or weed control at 16 g/ha (wild poinsettia; Euphorbia heterophylla, post-emergence, postemergence, 16 g ai/ha, scale 0 to 100, 0 no effect, 100 complete control, read-out: Plant response rating, Poinsettia, Wild): 65%
pest or weed control at 31 g/ha (palmer pigweed; post-emergence, Postemergence, 31 g ai/ha, scale 0 to 100, read-out: Plant response rating, Pigweed, Palmer): 85%
pest or weed control at 62 g/ha (palmer pigweed; post-emergence, Postemergence, 62 g ai/ha, scale 0 to 100, read-out: Plant response rating, Pigweed, Palmer): 95%
pest or weed control at 125 g/ha (palmer pigweed; post-emergence, Postemergence, 125 g ai/ha, scale 0 to 100, read-out: Plant response rating, Pigweed, Palmer): 100%
pest or weed control at 8 g/ha (palmer pigweed; post-emergence, postemergence, 8 g ai/ha, scale 0 to 100, 0 no effect, 100 complete control, read-out: Plant response rating, Pigweed, Palmer): 70%
pest or weed control at 16 g/ha (palmer pigweed; post-emergence, postemergence, 16 g ai/ha, scale 0 to 100, 0 no effect, 100 complete control, read-out: Plant response rating, Pigweed, Palmer): 65%
pest or weed control at 31 g/ha (field bindweed; Convolvulus arvensis, post-emergence, Postemergence, 31 g ai/ha, scale 0 to 100, read-out: Plant response rating, Field Bindweed): 50%
pest or weed control at 62 g/ha (field bindweed; Convolvulus arvensis, post-emergence, Postemergence, 62 g ai/ha, scale 0 to 100, read-out: Plant response rating, Field Bindweed): 70%
pest or weed control at 125 g/ha (field bindweed; Convolvulus arvensis, post-emergence, Postemergence, 125 g ai/ha, scale 0 to 100, read-out: Plant response rating, Field Bindweed): 75%
pest or weed control at 8 g/ha (field bindweed; Convolvulus arvensis, post-emergence, postemergence, 8 g ai/ha, scale 0 to 100, 0 no effect, 100 complete control, read-out: Plant response rating, Field Bindweed): 60%
pest or weed control at 16 g/ha (field bindweed; Convolvulus arvensis, post-emergence, postemergence, 16 g ai/ha, scale 0 to 100, 0 no effect, 100 complete control, read-out: Plant response rating, Field Bindweed): 50%
pest or weed control at 31 g/ha (hairy beggarticks; Bidens pilosa, post-emergence, Postemergence, 31 g ai/ha, scale 0 to 100, read-out: Plant response rating, Beggarticks): 60%
pest or weed control at 62 g/ha (hairy beggarticks; Bidens pilosa, post-emergence, Postemergence, 62 g ai/ha, scale 0 to 100, read-out: Plant response rating, Beggarticks): 70%
pest or weed control at 125 g/ha (hairy beggarticks; Bidens pilosa, post-emergence, Postemergence, 125 g ai/ha, scale 0 to 100, read-out: Plant response rating, Beggarticks): 95%
pest or weed control at 8 g/ha (hairy beggarticks; Bidens pilosa, post-emergence, postemergence, 8 g ai/ha, scale 0 to 100, 0 no effect, 100 complete control, read-out: Plant response rating, Beggarticks): 30%
pest or weed control at 16 g/ha (hairy beggarticks; Bidens pilosa, post-emergence, postemergence, 16 g ai/ha, scale 0 to 100, 0 no effect, 100 complete control, read-out: Plant response rating, Beggarticks): 50%
